Among the data in ChEMBL document CHEMBL5537110, “SIRT1-dependent mitochondrial biogenesis supports therapeutic effects of 4-butyl-polyhydroxybenzophenone compounds against NAFLD” (Eur J Med Chem, 2023) are Activity and inhibition values, retold here.

The source made the active and inactive calls. No cut-off for these calls is given here.

Experiment [1] deals with HepG2. The experiment is described as follows: Recovery of mitochondrial biogenesis in 40% FBS-induced steatosis human HepG2 cells model assessed as increase in PGC1alpha mRNA expression incubated for 24 hrs by qRT-PCR analysis. Type of experiment: functional, cell-based. The following applies: dose 0.2-5 µM.
Experiment [2] relates to Rattus norvegicus. Nature of the experiment: Hepatoprotective activity against high fat diet-fed NAFLD Sprague-Dawley rat model assessed as decrease in serum GDH level administered intragastrically via gavage for 4 weeks. Type of experiment: functional, organism-based. The note with it: dose 12.3-61.4 mg/kg, route ig.
The subject of experiment [3] is Rattus norvegicus. Nature of the experiment: Hepatoprotective activity against high fat diet-fed NAFLD Sprague-Dawley rat model assessed as decrease in liver index administered intragastrically via gavage for 4 weeks. The note with it: dose 12.3-61.4 mg/kg, route ig. Type of experiment: functional, organism-based.
In experiment [4] the test system is HepG2. The experiment is described as follows: Inhibition of liver injury in 40% FBS-induced steatosis human HepG2 cells model assessed as decrease in LDH level at 0.2 to 5 uM incubated in steatosis inducing DMEM with 40% FBS medium for 24 hrs followed by compound treatment. The class given is functional, cell-based. The following applies: dose 0.2-5 µM.
The target of experiment [5] is T1, NAD-dependent protein deacetylase sirtuin-1 (Homo sapiens) (UniProt Q96EB6).
T1 sequence (whole entry): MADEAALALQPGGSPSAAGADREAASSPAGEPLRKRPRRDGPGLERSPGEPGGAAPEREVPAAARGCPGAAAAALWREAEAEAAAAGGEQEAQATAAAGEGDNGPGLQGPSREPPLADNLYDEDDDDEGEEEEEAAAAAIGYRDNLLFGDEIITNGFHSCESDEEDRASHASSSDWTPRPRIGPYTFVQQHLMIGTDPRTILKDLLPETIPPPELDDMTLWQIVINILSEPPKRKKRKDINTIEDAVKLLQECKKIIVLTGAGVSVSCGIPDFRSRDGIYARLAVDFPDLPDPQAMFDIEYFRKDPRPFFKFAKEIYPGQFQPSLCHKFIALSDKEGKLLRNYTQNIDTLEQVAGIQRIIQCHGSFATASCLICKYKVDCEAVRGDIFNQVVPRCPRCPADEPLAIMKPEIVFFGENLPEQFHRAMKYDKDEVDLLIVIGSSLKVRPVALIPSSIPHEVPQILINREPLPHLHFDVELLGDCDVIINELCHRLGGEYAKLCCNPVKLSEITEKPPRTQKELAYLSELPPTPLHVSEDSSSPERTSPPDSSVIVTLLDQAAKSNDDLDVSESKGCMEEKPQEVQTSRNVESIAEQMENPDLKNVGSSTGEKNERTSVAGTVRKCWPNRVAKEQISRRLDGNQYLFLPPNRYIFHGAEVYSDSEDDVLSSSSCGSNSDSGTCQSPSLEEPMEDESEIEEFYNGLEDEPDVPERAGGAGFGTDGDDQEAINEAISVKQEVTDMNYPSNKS
The experiment is described as follows: Binding affinity to SIRT1 in human HepG2 cells assessed as increase in thermal stability of protein pretreated with compound for 30 mins followed by incubation at 50 degC for 3 mins by CETSA-WB analysis. The class given is cell-based. The following applies: filed as activator, dose 80-320 µM, time 33.0 min.

Experiment [6] addresses T1, NAD-dependent protein deacetylase sirtuin-1 (Homo sapiens). Nature of the experiment: Binding affinity to SIRT1 in human HepG2 cells assessed as increase in thermal stabilization of protein at 320 uM pretreated with compound for 30 mins followed by incubation at 40 to 65 degC for 3 mins by CETSA-WB analysis. Type of experiment: cell-based. The following applies: filed as activator, time 33.0 min.

Experiment [7] has as its system HepG2. The experiment is described as follows: Induction of mitochondrial biogenesis in human HepG2 cells assessed as TFAM mRNA expression incubated for 24 hrs in presence of SIRT1 inhibitor, EX527 by qRT-PCR analysis. Type of experiment: functional, cell-based. In general terms: Quantitative PCR measures a nucleic acid by following its amplification.
The subject of experiment [8] is HepG2. Nature of the experiment: Inhibition of liver injury in human HepG2 cells assessed as increase in liver protection index by measuring increase in ratio of GSH to GSSG at 0.2 to 5 uM incubated with compound for 24 hrs followed by replacement with steatosis inducing DMEM with 40% FBS medium. Type of experiment: functional, cell-based. The following applies: dose 0.2-5 µM.

For experiment [9], the target named is T2, Peroxisome proliferator-activated receptor gamma coactivator 1-alpha (Homo sapiens) (UniProt Q9UBK2).
T2 sequence (whole entry): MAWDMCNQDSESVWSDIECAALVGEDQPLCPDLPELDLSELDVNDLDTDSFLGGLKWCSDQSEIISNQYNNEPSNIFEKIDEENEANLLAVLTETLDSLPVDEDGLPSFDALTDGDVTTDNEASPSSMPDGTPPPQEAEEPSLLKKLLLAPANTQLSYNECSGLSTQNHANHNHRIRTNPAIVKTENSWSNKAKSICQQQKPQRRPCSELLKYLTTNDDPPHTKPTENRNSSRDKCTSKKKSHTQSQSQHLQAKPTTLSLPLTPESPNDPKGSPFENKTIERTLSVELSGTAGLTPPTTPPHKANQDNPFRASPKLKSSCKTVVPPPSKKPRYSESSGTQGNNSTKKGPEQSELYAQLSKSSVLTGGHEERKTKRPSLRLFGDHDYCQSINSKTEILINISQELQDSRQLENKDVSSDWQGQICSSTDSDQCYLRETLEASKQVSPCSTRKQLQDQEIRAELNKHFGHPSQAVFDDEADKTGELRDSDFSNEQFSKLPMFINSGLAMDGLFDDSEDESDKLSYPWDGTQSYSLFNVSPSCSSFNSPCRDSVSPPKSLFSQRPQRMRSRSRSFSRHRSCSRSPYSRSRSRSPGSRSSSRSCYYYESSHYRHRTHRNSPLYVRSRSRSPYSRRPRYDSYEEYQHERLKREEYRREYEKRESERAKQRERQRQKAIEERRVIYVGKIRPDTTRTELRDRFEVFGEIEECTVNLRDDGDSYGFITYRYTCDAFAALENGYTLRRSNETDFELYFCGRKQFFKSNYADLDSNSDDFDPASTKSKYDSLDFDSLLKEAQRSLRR
The experiment is described as follows: Binding affinity to PGC1alpha in human HepG2 cells assessed as increase in thermal stabilization of protein at 320 uM pretreated with compound for 30 mins followed by incubation at 40 to 65 degC for 3 mins by CETSA-WB analysis. The class given is cell-based. The following applies: filed as activator, time 33.0 min.

Experiment [10] deals with Rattus norvegicus. The experiment is described as follows: Hepatoprotective activity against high fat diet-fed NAFLD Sprague-Dawley rat model assessed as decrease in serum ALT level administered intragastrically via gavage for 4 weeks. Type of experiment: functional, organism-based. The following applies: dose 12.3-61.4 mg/kg, route ig.
Experiment [11] relates to HepG2. Nature of the experiment: Inhibition of liver injury in 40% FBS-induced steatosis human HepG2 cells model assessed as decrease in AST level at 0.2 to 5 uM incubated in steatosis inducing DMEM with 40% FBS medium for 24 hrs followed by compound treatment. The class given is functional, cell-based. The note with it: dose 0.2-5 µM.
Experiment [12] deals with HepG2. Nature of the experiment: Inhibition of liver injury in 40% FBS-induced steatosis human HepG2 cells model assessed as decrease in LDH level at 0.2 to 5 uM incubated with compound for 24 hrs followed by replacement with steatosis inducing DMEM with 40% FBS medium. The class given is functional, cell-based. The note with it: dose 0.2-5 µM.
Experiment [13] relates to HepG2. Nature of the experiment: Inhibition of mitochondrial membrane potential dissipation in 40% FBS-induced steatosis human HepG2 cells model assessed as increase in mitochondrial membrane potential incubated with compound for 24 hrs followed by replacement with steatosis inducing DMEM with 40% FBS medium by JC-1 staining based fluorescence microscopy. Type of experiment: functional, cell-based. The note with it: Mitochondria, dose 0.2-5 µM.

The subject of experiment [14] is Rattus norvegicus. Nature of the experiment: Hepatoprotective activity against high fat diet-fed NAFLD Sprague-Dawley rat model assessed as inhibition of diet-induced body weight gain administered intragastrically via gavage for 4 weeks. Type of experiment: functional, organism-based. The following applies: dose 12.3-61.4 mg/kg, route ig.
The test system of experiment [15] is HepG2. The experiment is described as follows: Inhibition of oxidative stress in 40% FBS-induced steatosis human HepG2 cells model assessed as reduction in mitochondrial ROS production incubated with compound for 24 hrs followed by replacement with steatosis inducing DMEM with 40% FBS medium by MitoSOX Red dye based fluorescence microscopy. Type of experiment: functional, cell-based. The following applies: Mitochondria, dose 0.2-5 µM.

As to `CC(C)(C)c1ccc(C(=O)c2ccc(O)c(O)c2)cc1`, the Activity result (with HepG2 [1]; in the experiment on Rattus norvegicus [3]; in [5]; in the experiment on Rattus norvegicus [14]) was “Dose-Dependent Effect” in each case. The result (in the experiment on Rattus norvegicus [2]; in experiment [6]; in experiment [9]; with Rattus norvegicus [10]) was Active. Besides, the inhibition result with HepG2 [4], in the experiment with HepG2 [8], in the experiment on HepG2 [11] and in the experiment with HepG2 [12] was “Active” throughout. In addition, in the experiment on HepG2 [7], the result was inactive. Besides, the inhibition entry in the experiment with HepG2 [13] and with HepG2 [15] was “Dose-Dependent Effect” throughout.
